Results from patent US10736883B2, “Triazole furan compounds as agonists of the APJ receptor” (AMGEN INC., priority 2016, dated 2020).

Each compound was assayed against APJ receptor (Homo sapiens (Human), UniProt P35414) (assay: [35S]GTPγS binding assay on membranes from CHO cells stably expressing human APJ receptor). Conditions: membranes of CHO cells stably expressing human APJ receptor, means of several independent experiments, read-out: Activity hAPJ SPA EC50 IP.
Format: biochemical
Method in brief: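 EC50 values were obtained by non-linear regression of [35S]GTPγS (0.2 nM) binding after 90 min at RT, with nonspecific binding defined by 100 μM GTPγS. Reactions used human APJ–expressing CHO cell membranes on WGA PS beads in HEPES pH 7.5 buffer with 5 mM MgCl2, 200 mM NaCl, 3 μM GDP and 0.1% BSA.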

APJ receptor, sequence (P35414 whole entry): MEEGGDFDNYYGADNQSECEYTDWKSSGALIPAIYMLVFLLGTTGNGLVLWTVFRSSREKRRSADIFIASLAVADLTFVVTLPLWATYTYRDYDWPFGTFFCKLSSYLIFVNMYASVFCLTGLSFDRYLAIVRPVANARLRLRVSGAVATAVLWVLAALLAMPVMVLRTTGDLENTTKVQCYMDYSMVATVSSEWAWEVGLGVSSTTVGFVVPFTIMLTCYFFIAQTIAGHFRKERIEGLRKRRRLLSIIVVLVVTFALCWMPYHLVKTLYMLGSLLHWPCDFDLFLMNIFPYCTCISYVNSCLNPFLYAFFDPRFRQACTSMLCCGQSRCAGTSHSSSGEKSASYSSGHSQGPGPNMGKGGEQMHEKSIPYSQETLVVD

EC50	SMILES
3 nM	COc1cccc(OC)c1-n1c(NS(=O)(=O)[C@H]2C[C@H](OC)CN(c3ncc(F)cn3)C2)nnc1-c1ccco1 (single isomer, unassigned) [Example 178.0]
33 nM	COC[C@H]1CCCC(=O)N1C[C@@H](C)S(=O)(=O)Nc1nnc(-c2ccc(C)o2)n1-c1c(OC)cccc1OC (single isomer, unassigned) [Example 185.0]
75 nM	COc1cccc(OC)c1-n1c(NS(=O)(=O)[C@H]2CNC[C@H](c3ccc(F)cc3)C2)nnc1-c1ccco1 (single isomer, unassigned) [Example 188.0, (3R,5S)—N-(4-(2,6-Dimethoxyphenyl)-5-(2-furanyl)-4H-1,2,4-triazol-3-yl)-5-(4-fluorophenyl)-3-piperidinesulfonamide or (3S,5R)—N-(4-(2,6-dimethoxyphenyl)-5-(2-furanyl)-4H-1,2,4-triazol-3-yl)-5-(4-fluorophenyl)-3-piperidinesulfonamide]
15 nM	COc1cccc(OC)c1-n1c(NS(=O)(=O)C2C[C@@H]2c2ccc(Cl)cc2)nnc1-c1ccco1 (single isomer, unassigned) [Example 191.0, (1R,2S)-2-(4-Chlorophenyl)-N-(4-(2,6-dimethoxyphenyl)-5-(2-furanyl)-4H-1,2,4-triazol-3-yl)cyclopropanesulfonamide or (1S,2R)-2-(4-chlorophenyl)-N-(4-(2,6-dimethoxyphenyl)-5-(2-furanyl)-4H-1,2,4-triazol-3-yl)cyclopropanesulfonamide]
2.8 nM	COc1cccc(OC)c1-n1c(NS(=O)(=O)[C@@H]2C[C@H]2c2ccc(Cl)cc2)nnc1-c1ccco1 (single isomer, unassigned) [Example 192.0, (1R,2S)-2-(4-Chlorophenyl)-N-(4-(2,6-dimethoxyphenyl)-5-(2-furanyl)-4H-1,2,4-triazol-3-yl)cyclopropanesulfonamide or (1S,2R)-2-(4-chlorophenyl)-N-(4-(2,6-dimethoxyphenyl)-5-(2-furanyl)-4H-1,2,4-triazol-3-yl)cyclopropanesulfonamide]
0.44 nM	COc1cccc(OC)c1-n1c(NS(=O)(=O)C[C@@](C)(F)c2ncc(C#N)cn2)nnc1-c1ccc(C)o1 (single isomer, unassigned) [Example 231.0, (2S)-2-(5-Cyano-2-pyrimidinyl)-N-(4-(2,6-dimethoxyphenyl)-5-(5-methyl-2-furanyl)-4H-1,2,4-triazol-3-yl)-2-fluoro-1-propanesulfonamide or (2R)-2-(5-cyano-2-pyrimidinyl)-N-(4-(2,6-dimethoxyphenyl)-5-(5-methyl-2-furanyl)-4H-1,2,4-triazol-3-yl)-2-fluoro-1-propanesulfonamide]
0.5 nM	COc1cccc(OC)c1-n1c(NS(=O)(=O)C[C@](C)(O)c2ncc(C#N)cn2)nnc1-c1ccc(C)o1 (single isomer, unassigned) [Example 233.0, (R)-2-(5-Cyanopyrimidin-2-yl)-N-(4-(2,6-dimethoxyphenyl)-5-(5-methylfuran-2-yl)-4H-1,2,4-triazol-3-yl)-2-hydroxypropane-1-sulfonamide or (S)-2-(5-cyanopyrimidin-2-yl)-N-(4-(2,6-dimethoxyphenyl)-5-(5-methylfuran-2-yl)-4H-1,2,4-triazol-3-yl)-2-hydroxypropane-1-sulfonamide]
0.58 nM	COc1cccc(OC)c1-n1c(NS(=O)(=O)C[C@@](C)(F)c2ncc(F)cn2)nnc1-c1ccc(C)o1 (single isomer, unassigned) [Example 237.0, (2S)—N-(4-(2,6-Dimethoxyphenyl)-5-(5-methyl-2-furanyl)-4H-1,2,4-triazol-3-yl)-2-fluoro-2-(5-fluoro-2-pyrimidinyl)-1-propanesulfonamide or (2R)—N-(4-(2,6-dimethoxyphenyl)-5-(5-methyl-2-furanyl)-4H-1,2,4-triazol-3-yl)-2-fluoro-2-(5-fluoro-2-pyrimidinyl)-1-propanesulfonamide]
0.87 nM	COc1cccc(OC)c1-n1c(NS(=O)(=O)[C@@H](C)[C@](C)(N)c2ncc(F)cn2)nnc1-c1ccc(C)o1 (single isomer, unassigned) [Example 243.0]
0.95 nM	COc1cccc(OC)c1-n1c(NS(=O)(=O)C[C@](C)(F)c2ncc(C#N)cn2)nnc1-c1ccc(C)o1 (single isomer, unassigned) [Example 245.0, (2R)-2-(5-Cyano-2-pyrimidinyl)-N-(4-(2,6-dimethoxyphenyl)-5-(5-methyl-2-furanyl)-4H-1,2,4-triazol-3-yl)-2-fluoro-1-propanesulfonamide or (2S)-2-(5-cyano-2-pyrimidinyl)-N-(4-(2,6-dimethoxyphenyl)-5-(5-methyl-2-furanyl)-4H-1,2,4-triazol-3-yl)-2-fluoro-1-propanesulfonamide]
1.4 nM	COc1cccc(OC)c1-n1c(NS(=O)(=O)[C@@H](C)[C@](C)(N)c2ncc(F)cn2)nnc1-c1ccc(C)o1 (single isomer, unassigned) [Example 246.0]
1.6 nM	COc1cccc(OC)c1-n1c(NS(=O)(=O)C[C@@](C)(O)c2ncc(C#N)cn2)nnc1-c1ccc(C)o1 (single isomer, unassigned) [Example 248.0, (2S)-2-(5-Cyano-2-pyrimidinyl)-N-(4-(2,6-dimethoxyphenyl)-5-(5-methyl-2-furanyl)-4H-1,2,4-triazol-3-yl)-2-hydroxy-1-propanesulfonamide or (2R)-2-(5-cyano-2-pyrimidinyl)-N-(4-(2,6-dimethoxyphenyl)-5-(5-methyl-2-furanyl)-4H-1,2,4-triazol-3-yl)-2-hydroxy-1-propanesulfonamide]
2.5 nM	COc1cccc(OC)c1-n1c(NS(=O)(=O)C[C@@](C)(O)c2ncc(F)cn2)nnc1-c1ccc(C)o1 (single isomer, unassigned) [Example 249.0]
0.18 nM	COc1cccc(OC)c1-n1c(NS(=O)(=O)[C@@H](C)[C@H](O)c2cn3ccccc3n2)nnc1-c1ccc(C)o1 (single isomer, unassigned) [Example 265.0, (1R,2S)—N-(4-(2,6-Dimethoxyphenyl)-5-(5-methyl-2-furanyl)-4H-1,2,4-triazol-3-yl)-1-hydroxy-1-imidazo[1,2-a]pyridin-2-yl-2-propanesulfonamide or (1S,2R)—N-(4-(2,6-dimethoxyphenyl)-5-(5-methyl-2-furanyl)-4H-1,2,4-triazol-3-yl)-1-hydroxy-1-imidazo[1,2-a]pyridin-2-yl-2-propanesulfonamide]
0.47 nM	COc1cccc(OC)c1-n1c(NS(=O)(=O)[C@H](C)[C@H](OC)c2cn3ccccc3n2)nnc1-c1ccc(C)o1 (single isomer, unassigned) [Example 268.0, (1S,2S)—N-(4-(2,6-Dimethoxyphenyl)-5-(5-methyl-2-furanyl)-4H-1,2,4-triazol-3-yl)-1-imidazo[1,2-a]pyridin-2-yl-1-methoxy-2-propanesulfonamide or (1R,2R)—N-(4-(2,6-dimethoxyphenyl)-5-(5-methyl-2-furanyl)-4H-1,2,4-triazol-3-yl)-1-imidazo[1,2-a]pyridin-2-yl-1-methoxy-2-propanesulfonamide]

SMILES	EC50
COc1cnc([C@H](O)[C@@H](C)S(=O)(=O)Nc2nnc(-c3ccc(C)o3)n2-c2c(OC)cccc2OC)cn1 (single isomer, unassigned) [Example 177.0, (1S,2R)—N-(4-(2,6-Dimethoxyphenyl)-5-(5-methyl-2-furanyl)-4H-1,2,4-triazol-3-yl)-1-hydroxy-1-(5-methoxy-2-pyrazinyl)-2-propanesulfonamide or (1R,2S)—N-(4-(2,6-dimethoxyphenyl)-5-(5-methyl-2-furanyl)-4H-1,2,4-triazol-3-yl)-1-hydroxy-1-(5-methoxy-2-pyrazinyl)-2-propanesulfonamide]	2.8 nM
COc1cccc(OC)c1-n1c(NS(=O)(=O)[C@@H](C)[C@@](C)(O)c2ccc(C#N)cn2)nnc1-c1ccc(C)o1 (single isomer, unassigned) [Example 227.0]	0.35 nM
COc1cccc(OC)c1-n1c(NS(=O)(=O)[C@@H](C)[C@](C)(F)c2ncc(C#N)cn2)nnc1-c1ccc(C)o1 (single isomer, unassigned) [Example 230.0]	0.41 nM
COc1cccc(OC)c1-n1c(NS(=O)(=O)[C@@H](C)[C@H](OC)c2cn3ccccc3n2)nnc1-c1ccc(C)o1 (single isomer, unassigned) [Example 263.0, (1R,2S)—N-(4-(2,6-Dimethoxyphenyl)-5-(5-methyl-2-furanyl)-4H-1,2,4-triazol-3-yl)-1-imidazo[1,2-a]pyridin-2-yl-1-methoxy-2-propanesulfonamide or (1S,2R)—N-(4-(2,6-dimethoxyphenyl)-5-(5-methyl-2-furanyl)-4H-1,2,4-triazol-3-yl)-1-imidazo[1,2-a]pyridin-2-yl-1-methoxy-2-propanesulfonamide]	0.086 nM
COc1cccc(OC)c1-n1c(NS(=O)(=O)[C@@H](C)[C@H](O)c2cc3ccccn3n2)nnc1-c1ccc(C)o1 (single isomer, unassigned) [Example 266.0, (1R,2S)—N-(4-(2,6-Dimethoxyphenyl)-5-(5-methyl-2-furanyl)-4H-1,2,4-triazol-3-yl)-1-hydroxy-1-pyrazolo[1,5-a]pyridin-2-yl-2-propanesulfonamide or (1S,2R)—N-(4-(2,6-dimethoxyphenyl)-5-(5-methyl-2-furanyl)-4H-1,2,4-triazol-3-yl)-1-hydroxy-1-pyrazolo[1,5-a]pyridin-2-yl-2-propanesulfonamide]	0.21 nM
COc1cccc(OC)c1-n1c(NS(=O)(=O)[C@@H](C)[C@H](O)c2cccc3ccnn23)nnc1-c1ccc(C)o1 (single isomer, unassigned) [Example 267.0, (1R,2S)—N-(4-(2,6-Dimethoxyphenyl)-5-(5-methyl-2-furanyl)-4H-1,2,4-triazol-3-yl)-1-hydroxy-1-pyrazolo[1,5-a]pyridin-7-yl-2-propanesulfonamide or (1S,2R)—N-(4-(2,6-dimethoxyphenyl)-5-(5-methyl-2-furanyl)-4H-1,2,4-triazol-3-yl)-1-hydroxy-1-pyrazolo[1,5-a]pyridin-7-yl-2-propanesulfonamide]	0.43 nM
